Structures can show the parent of a compound that is named as a salt. Where two headings read alike, the source gives them in different places.
Experiments:
Type in all cases: cell-based, human
HTT mRNA [1] = experiment: Splicing RT-qPCR assay, HTT canonical (CJ) and alternative (AJ) junction mRNA; conditions: Homo sapiens
Procedure, shortened: (§1)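 A673 or K562 cells were treated 24 h at 37 °C with an 11-point 3-fold compound dilution series (top 10 uM, DMSO ≤0.25%). Lysates went to one-step RT-qPCR measuring canonical (CJ) and alternative-exon (AJ) junction transcripts, normalized to GAPDH, GUSB or PPIA.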

MYB mRNA = experiment: Splicing RT-qPCR assay, MYB canonical (CJ) and alternative (AJ) junction mRNA; conditions: Homo sapiens
Procedure, shortened: as §1

SMN2 mRNA = experiment: Splicing RT-qPCR gene panel, SMN2 canonical junction (CJ) mRNA; conditions: Homo sapiens, Tables 4A/4B, read-out: SMN2 (IC50, decrease in CJ mRNA, gene panel)
Procedure, shortened: (§2)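 Read-out: RT-qPCR of the canonical exon-exon junction transcript, ΔCt vs housekeeping gene, normalized to DMSO, RQ = 2^(−ΔΔCt), converted to percentage response. Cells, A673 or K562, were dosed 24 h at 37 °C across 11 3-fold dilutions from 10 uM.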

Target C mRNA = experiment: Splicing RT-qPCR gene panel, Target C canonical junction (CJ) mRNA; conditions: Homo sapiens, Tables 4A/4B, read-out: Target C (IC50, decrease in CJ mRNA, gene panel)
Procedure, shortened: as §2

HTT mRNA [2] = experiment: Splicing RT-qPCR gene panel, HTT canonical junction (CJ) mRNA; conditions: Homo sapiens, Tables 4A/4B, read-out: HTT (IC50, decrease in CJ mRNA, gene panel)
Procedure, shortened: as §2

[3] = 24 h, A673 or K562 cells, 24 hours compound treatment, read-out: HTT CJ (IC50, decrease in canonical junction mRNA)
[4] = A673 or K562 cells, 24 hours compound treatment, read-out: HTT AJ (AC50, increase in alternative junction mRNA)
[5] = 24 h, A673 or K562 cells, 24 hours compound treatment, RT-qPCR, read-out: MYB AJ (AC50, increase in alternative junction mRNA)
[6] = 24 h, A673 or K562 cells, 24 hours compound treatment, RT-qPCR, read-out: MYB CJ (IC50, decrease in canonical junction mRNA)
[7] = Tables 4A/4B, canonical junction qPCR panel, read-out: MYB (IC50, decrease in CJ mRNA, gene panel)

IC50 (HTT mRNA [1]; [3])	IC50 (MYB mRNA; [6])	IC50 (MYB mRNA; [7])	IC50 (SMN2 mRNA)	IC50 (Target C mRNA)	IC50 (HTT mRNA [2])	IC50 (HTT mRNA [1]; Table 3B, canonical junction mRNA, read-out: HTT CJ (IC50, decrease in CJ mRNA))	IC50 (MYB mRNA; Table 3B, canonical junction mRNA, RT-qPCR, read-out: MYB CJ (IC50, decrease in CJ mRNA))	Compound	AC50 (HTT mRNA [1]; [4])	AC50 (MYB mRNA; [5])	AC50 (HTT mRNA [1]; Table 3B, alternative junction mRNA, read-out: HTT AJ (AC50, increase in AJ mRNA))	AC50 (MYB mRNA; Table 3B, alternative junction mRNA, RT-qPCR, read-out: MYB AJ (AC50, increase in AJ mRNA))
> 10000 nM	1000 to 10000 nM	1000 to 10000 nM	> 10000 nM	> 10000 nM	> 10000 nM			Cc1cn2cc(NC(=O)c3ccc(N4CCNCC4)c4cn(C)nc34)[nH]c(=O)c2n1 [Compound 342, N-{8-hydroxy-2-methylimidazo[1,2-a]pyrazin-6-yl}-2-methyl-4-(piperazin-1-yl) indazole-7-carboxamide]	> 10000 nM	> 10000 nM		
> 10000 nM	1000 to 10000 nM	1000 to 10000 nM	100 to 1000 nM	> 10000 nM	> 10000 nM			CC(=O)Cn1cc2c(N3CCNCC3)ccc(C(=O)Nc3cc(F)c4nc(C)cn4c3)c2n1 [Compound 339, N-{8-fluoro-2-methylimidazo[1,2-a]pyridin-6-yl}-2-(2-oxopropyl)-4-(piperazin-1-yl)indazole-7-carboxamide]	> 10000 nM	1000 to 10000 nM		
> 10000 nM	> 10000 nM	> 10000 nM	> 10000 nM	> 10000 nM	> 10000 nM			CN[C@H]1CCN(c2ccc(C(=O)Nc3cn4cc(C)nc4c(N(C)C)n3)c3nn(C)cc23)C1 [Compound 426]	> 10000 nM	> 10000 nM		
1000 to 10000 nM	100 to 1000 nM	100 to 1000 nM	< 100 nM	> 10000 nM	1000 to 10000 nM			CCN1CCC(c2ccc(C(=O)Nc3cc(F)c4nc(C)cn4c3)c3oc(C)cc23)CC1 [Compound 257]	1000 to 10000 nM	100 to 1000 nM		
		< 100 nM	< 100 nM	< 100 nM	< 100 nM	< 100 nM	< 100 nM	COc1c(NC(=O)c2ccc(N3CCNCC3)c3nc(C)nn23)cn2cc(C)nc2c1F [Compound 949]			< 100 nM	< 100 nM
> 10000 nM	> 10000 nM	> 10000 nM	1000 to 10000 nM	> 10000 nM	> 10000 nM			Cc1cn2cc(NC(=O)c3ccc(N4CCNCC4)c4cn(CC(O)CO)nc34)cc(F)c2n1 (centres unmarked) [Compound 329, 2-(2,3-dihydroxypropyl)-N-{8-fluoro-2-methylimidazo[1,2-a]pyridin-6-yl}-4-(piperazin-1-yl)indazole-7-carboxamide]	> 10000 nM	> 10000 nM		
> 10000 nM	100 to 1000 nM	100 to 1000 nM	100 to 1000 nM	> 10000 nM	> 10000 nM			Cc1cn2cc(NC(=O)c3ccc(N4CCC(N)(C(F)(F)F)CC4)c4cn(C)nc34)cc(F)c2n1 [Compound 370, 4-[4-amino-4-(trifluoromethyl)piperidin-1-yl]-N-{8-fluoro-2-methylimidazo[1,2-a]pyridin-6-yl}-2-methylindazole-7-carboxamide]	> 10000 nM	1000 to 10000 nM		
100 to 1000 nM	< 100 nM	< 100 nM	< 100 nM	1000 to 10000 nM	100 to 1000 nM			Cc1cn2cc(NC(=O)c3ccc(N4CCC(NCCO)CC4)c4cn(C)nc34)cc(F)c2n1 [Compound 369, N-{8-fluoro-2-methylimidazo[1,2-a]pyridin-6-yl}-4-{4-[(2-hydroxyethyl)amino]piperidin-1-yl}-2-methylindazole-7-carboxamide]	100 to 1000 nM	< 100 nM		
> 10000 nM	> 10000 nM	> 10000 nM	100 to 1000 nM	> 10000 nM	> 10000 nM			Cc1cn2cc(NC(=O)c3ccc(N4CCNCC4)c4cn(CC5(O)COC5)nc34)cc(F)c2n1 [Compound 384, N-{8-fluoro-2-methylimidazo[1,2-a]pyridin-6-yl}-2-[(3-hydroxyoxetan-3-yl)methyl]-4-(piperazin-1-yl) indazole-7-carboxamide]	> 10000 nM	1000 to 10000 nM		
100 to 1000 nM	< 100 nM	< 100 nM	< 100 nM	1000 to 10000 nM	100 to 1000 nM			CCn1cc2c(N3CCC(C)(NC)CC3)ccc(C(=O)Nc3cc(F)c4nc(C)cn4c3)c2n1 [Compound 423, 2-ethyl-N-{8-fluoro-2-methylimidazo[1,2-a]pyridin-6-yl}-4-[4-methyl-4-(methylamino)piperidin-1-yl]indazole-7-carboxamide]	100 to 1000 nM	< 100 nM		
> 10000 nM	100 to 1000 nM	100 to 1000 nM	< 100 nM	> 10000 nM	> 10000 nM			Cc1cn2cc(NC(=O)c3ccc(N4C[C@@H](C)N[C@@H](C)C4)c4cn(C)nc34)nc(C)c2n1 [Compound 334, N-{2,8-dimethylimidazo[1,2-a]pyrazin-6-yl}-4-[(3R,5S)-3,5-dimethylpiperazin-1-yl]-2-methylindazole-7-carboxamide]	> 10000 nM	100 to 1000 nM		
1000 to 10000 nM	< 100 nM	< 100 nM	< 100 nM	> 10000 nM	> 10000 nM			CNC1CCN(c2ccc(C(=O)Nc3cn4cc(C)nc4c(OC)n3)c3nn(C)cc23)C1 (centres unmarked) [Compound 417]	> 10000 nM	< 100 nM		
> 10000 nM	> 10000 nM	> 10000 nM	1000 to 10000 nM	> 10000 nM	> 10000 nM			COC1CC(n2cc3c(N4CCNCC4)ccc(C(=O)Nc4cc(F)c5nc(C)cn5c4)c3n2)C1 (centres unmarked) [Compound 424]	> 10000 nM	> 10000 nM		
> 10000 nM	> 10000 nM	> 10000 nM	> 10000 nM	> 10000 nM	> 10000 nM			Cc1cn2cc(NC(=O)c3ccc(N4CCNCC4)c4cn(CC5(C)COC5)nc34)cc(F)c2n1 [Compound 308, N-{8-fluoro-2-methylimidazo[1,2-a]pyridin-6-yl}-2-[(3-methyloxetan-3-yl)methyl]-4-(piperazin-1-yl)indazole-7-carboxamide]	> 10000 nM	> 10000 nM		
100 to 1000 nM	< 100 nM	< 100 nM	< 100 nM	1000 to 10000 nM	100 to 1000 nM			CNC1CCN(c2ccc(C(=O)Nc3cc(F)c4nc(C)cn4c3)c3nn(C)cc23)CC1 [Compound 448, N-{8-fluoro-2-methylimidazo[1,2-a]pyridin-6-yl}-2-methyl-4-[4-(methylamino)piperidin-1-yl]indazole-7-carboxamide]	1000 to 10000 nM	< 100 nM		
1000 to 10000 nM	< 100 nM	< 100 nM	< 100 nM	> 10000 nM	> 10000 nM			Cc1cn2cc(NC(=O)c3ccc(N4CC[C@H](NC5CC5)C4)c4cn(C)nc34)cc(F)c2n1 [Compound 372, 4-[(3S)-3-(cyclopropylamino)pyrrolidin-1-yl]-N-{8-fluoro-2-methylimidazo[1,2-a]pyridin-6-yl}-2-methylindazole-7-carboxamide]	1000 to 10000 nM	< 100 nM		
1000 to 10000 nM	100 to 1000 nM	100 to 1000 nM	< 100 nM	> 10000 nM	1000 to 10000 nM			Cc1cn2cc(NC(=O)c3ccc(N4CCNCC4)c4cc(C)oc34)c(C)cc2n1 [Compound 262]	1000 to 10000 nM	100 to 1000 nM		
> 10000 nM	1000 to 10000 nM	1000 to 10000 nM	100 to 1000 nM	> 10000 nM	> 10000 nM			Cc1cn2cc(NC(=O)c3ccc(N4CCNCC4)c4cn(Cc5ccc6[nH]ncc6c5)nc34)cc(F)c2n1 [Compound 340, N-{8-fluoro-2-methylimidazo[1,2-a]pyridin-6-yl}-2-(1H-indazol-5-ylmethyl)-4-(piperazin-1-yl) indazole-7-carboxamide trifluoroacetate]	> 10000 nM	1000 to 10000 nM		

Compound	IC50 (HTT mRNA [1]; [3])	IC50 (MYB mRNA; [6])	IC50 (MYB mRNA; [7])	IC50 (SMN2 mRNA)	IC50 (Target C mRNA)	IC50 (HTT mRNA [2])	IC50 (HTT mRNA [1]; Table 3B, canonical junction mRNA, read-out: HTT CJ (IC50, decrease in CJ mRNA))	IC50 (MYB mRNA; Table 3B, canonical junction mRNA, RT-qPCR, read-out: MYB CJ (IC50, decrease in CJ mRNA))	AC50 (HTT mRNA [1]; [4])	AC50 (MYB mRNA; [5])	AC50 (HTT mRNA [1]; Table 3B, alternative junction mRNA, read-out: HTT AJ (AC50, increase in AJ mRNA))	AC50 (MYB mRNA; Table 3B, alternative junction mRNA, RT-qPCR, read-out: MYB AJ (AC50, increase in AJ mRNA))
Cc1cn2cc(NC(=O)c3ccc(N(C)C4CC(C)(C)NC(C)(C)C4)c4cc(C)oc34)cc(F)c2n1 [Compound 201]	> 10000 nM	> 10000 nM	> 10000 nM	1000 to 10000 nM	> 10000 nM	> 10000 nM			> 10000 nM	> 10000 nM		

Source: patent publication US20250154169A1, “COMPOUNDS AND METHODS FOR MODULATING SPLICING” (REMIX THERAPEUTICS INC., priority 2021, published 2025)
